Values of other authors, collected in patent US20040241258A1, “Insect repellent for humans and animals” (priority 2003, published 2004).

Details: in vivo

time remaining in the blood stream after use: 30 days
Structure (SMILES): CCN(CC)C(=O)c1cccc(C)c1 [DEET, N, N-diethyl-meta-toulamide]
